The subject of one experiment is HeLa. Kind of experiment: Cytotoxicity against human HeLa cells assessed as reduction in cell viability incubated for 24 hrs by MTT assay. In general terms: Tetrazolium assays rely on reduction of a dye to a coloured formazan, in cell work by metabolically active cells.
For another experiment, the system named is CWR22R. Kind of experiment: Cytotoxicity against human 22Rv1 cells assessed as reduction in cell viability incubated for 24 hrs by MTT assay. The settings on record: 22Rv1, 24 h.
Experiment [1] deals with T1, Heat shock protein 75 kDa, mitochondrial (Homo sapiens, UniProt Q12931).
T1 sequence (Q12931 whole entry): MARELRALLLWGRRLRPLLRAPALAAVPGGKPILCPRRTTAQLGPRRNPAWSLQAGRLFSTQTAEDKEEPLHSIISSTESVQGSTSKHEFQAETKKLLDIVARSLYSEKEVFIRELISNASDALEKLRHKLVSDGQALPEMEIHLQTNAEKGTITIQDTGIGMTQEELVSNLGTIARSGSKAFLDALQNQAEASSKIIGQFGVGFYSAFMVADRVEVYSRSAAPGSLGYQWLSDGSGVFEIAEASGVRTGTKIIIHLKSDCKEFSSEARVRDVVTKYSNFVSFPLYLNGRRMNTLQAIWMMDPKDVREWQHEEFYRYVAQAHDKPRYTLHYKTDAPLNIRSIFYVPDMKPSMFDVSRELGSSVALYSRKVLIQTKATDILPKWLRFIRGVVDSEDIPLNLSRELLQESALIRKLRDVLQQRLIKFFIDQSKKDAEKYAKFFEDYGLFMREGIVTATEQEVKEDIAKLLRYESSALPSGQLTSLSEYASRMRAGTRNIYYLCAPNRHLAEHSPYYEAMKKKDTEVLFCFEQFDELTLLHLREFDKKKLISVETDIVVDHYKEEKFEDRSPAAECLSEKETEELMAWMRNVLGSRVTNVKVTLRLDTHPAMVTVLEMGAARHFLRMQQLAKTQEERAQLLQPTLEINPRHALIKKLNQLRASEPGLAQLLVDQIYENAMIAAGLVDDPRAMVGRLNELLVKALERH

Experiment [2] has as its target T1, Heat shock protein 75 kDa, mitochondrial. The source holds these as a separate data set.
Description: Binding affinity to N-terminal 6Hits-tagged/TEV-fused human wildtype TRAP1 extracted from Escherichia coli BL21 (DE3) cells assessed as dissociation constant incubated for 2 hrs by fluorescence polarization assay
Experiment [3] shares this target. In words: Binding affinity to TRAP1 (unknown origin) assessed as dissociation constant by MST analysis.
In experiment [4] the target is Heat shock protein 75 kDa, mitochondrial (Homo sapiens, UniProt Q12931, F353A/F531A).
The target of experiment [5] is T1, Heat shock protein 75 kDa, mitochondrial. In words: Binding affinity to TRAP1 (unknown origin) assessed as dissociation constant incubated for 15 mins by MST analysis.

Where only a bound is given, the exact number is not on record here.

Heat shock protein 75 kDa, mitochondrial (Homo sapiens, UniProt Q12931, F353A/F531A), sequence (Q12931 60-704 F353A/F531A limits assumed): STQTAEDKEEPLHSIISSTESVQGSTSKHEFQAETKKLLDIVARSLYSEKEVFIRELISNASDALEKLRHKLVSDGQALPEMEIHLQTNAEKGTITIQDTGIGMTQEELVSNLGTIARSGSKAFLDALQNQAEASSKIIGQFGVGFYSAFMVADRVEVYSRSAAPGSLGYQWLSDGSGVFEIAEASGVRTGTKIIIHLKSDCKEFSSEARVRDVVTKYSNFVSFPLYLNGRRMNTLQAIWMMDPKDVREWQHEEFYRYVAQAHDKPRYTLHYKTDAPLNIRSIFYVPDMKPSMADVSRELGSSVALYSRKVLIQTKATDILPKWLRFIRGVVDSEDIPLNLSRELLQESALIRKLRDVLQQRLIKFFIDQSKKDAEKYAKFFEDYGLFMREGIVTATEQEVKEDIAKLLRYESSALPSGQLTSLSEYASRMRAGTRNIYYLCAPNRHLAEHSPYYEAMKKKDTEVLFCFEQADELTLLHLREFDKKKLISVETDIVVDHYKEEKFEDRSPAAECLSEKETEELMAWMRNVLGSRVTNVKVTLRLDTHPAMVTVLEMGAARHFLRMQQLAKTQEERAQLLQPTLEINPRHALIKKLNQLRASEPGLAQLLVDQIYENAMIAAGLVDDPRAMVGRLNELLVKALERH

With `COc1c(C)c(CCCCCCCCCC[P+](c2ccccc2)(c2ccccc2)c2ccccc2)c(OC)c(OC)c1OC`, the values for the IC50 (with HeLa; in the experiment with CWR22R; in experiment [1]) were 1.65 µM, 0.385 µM and 3.77 µM, respectively.

With `c1ccc([P+](Cc2c3ccccc3c(C[P+](c3ccccc3)(c3ccccc3)c3ccccc3)c3ccccc23)(c2ccccc2)c2ccccc2)cc1`, the IC50 is above 20 µM in the experiment on HeLa, above 20 µM in the experiment with CWR22R and 9.96 µM in experiment [1].

With `O=C(CCCCCCCCCC[P+](c1ccccc1)(c1ccccc1)c1ccccc1)Nc1nccs1`, the IC50 in the experiment on HeLa was determined as 6.38 µM; in the experiment on CWR22R it was 2.25 µM; in experiment [1], 14.1 µM.

In the case of `Cc1c(C)c2c(c(C)c1O)CCC(C)(CC[P+](c1ccccc1)(c1ccccc1)c1ccccc1)O2` (stereo not given), the IC50 is above 20 µM in the experiment with HeLa, 17.4 µM in the experiment on CWR22R and above 20 µM in experiment [1].

Take `CC1(C)CC(C(=O)OCCCCCCCCCC[P+](c2ccccc2)(c2ccccc2)c2ccccc2)C(C)(C)N1O` (stereo not given): the IC50 in the experiment with HeLa was found to be 5.15 µM; in the experiment with CWR22R, 0.601 µM; in experiment [1], 4.75 µM.

With `CCN(CC)c1ccc2c(-c3ccccc3C(=O)N(C)CCCCCCCC[P+](c3ccccc3)(c3ccccc3)c3ccccc3)c3ccc(=[N+](CC)CC)cc-3oc2c1`, the affinity in experiment [2], expressed as Kd, was 2.19 µM.

Regarding `COC1=C(OC)C(=O)C(C[P+](c2ccccc2)(c2ccccc2)c2ccccc2)=C(C)C1=O`, the IC50 is above 20 µM in the experiment with HeLa, 16.3 µM in the experiment on CWR22R and above 20 µM in experiment [1].

On to `O=C(C/C(=C/c1ccccc1)C[P+](c1ccccc1)(c1ccccc1)c1ccccc1)C/C(=C\c1ccccc1)C[P+](c1ccccc1)(c1ccccc1)c1ccccc1`, for which the IC50 in the experiment with HeLa is above 20 µM; in the experiment with CWR22R it was 17.4 µM; in experiment [1], above 20 µM.

Regarding `COc1cc(C)c(CCCCCCCCCC[P+](c2ccccc2)(c2ccccc2)c2ccccc2)cc1OC`, the IC50 in the experiment with HeLa came to 3.21 µM; with CWR22R, 0.502 µM; in experiment [1], 3.8 µM.

For `COC1=C(OC)C(=O)C(CCCCCCCCCC[P+](c2ccccc2)(c2ccccc2)c2ccccc2)=C(C)C1=O` [MITOQUINONE CATION], the Kd in experiment [3] was 6.6 µM. In addition, the values for the IC50 (in the experiment on HeLa; in the experiment with CWR22R; in experiment [1]) were 4.3 µM, 0.597 µM and 5.2 µM, respectively.

For `CN(C)CCOc1ccc(/C(=C(/CCCCCCCCCC[P+](c2ccccc2)(c2ccccc2)c2ccccc2)c2ccccc2)c2ccccc2)cc1`, the Kd in experiment [4] came out at 28 µM; in experiment [5] it was 4.41 µM. For the same compound, the results for the IC50 (with HeLa; in the experiment on CWR22R; in experiment [1]) were 0.94 µM, 0.62 µM and 2.53 µM, respectively.

With `COc1c(Br)c(C)c(CCCCCCCCCC[P+](c2ccccc2)(c2ccccc2)c2ccccc2)c(OC)c1OC`, the results for the 50% inhibitory concentration (IC50) (with HeLa; in the experiment on CWR22R; in experiment [1]) were 1.61 µM, 0.37 µM and 4.07 µM, respectively.

As for `O=C(CCCCCCCCC[P+](c1ccccc1)(c1ccccc1)c1ccccc1)Oc1ccc(-c2cc(=S)ss2)cc1`, the IC50 with HeLa is above 20 µM; with CWR22R, above 20 µM; in experiment [1], 8.94 µM.

As for `CC1(C)CC(C(=O)OCC[P+](c2ccccc2)(c2ccccc2)c2ccccc2)C(C)(C)N1O` (stereo not given), the IC50 (in the experiment on HeLa; in the experiment with CWR22R; in experiment [1]) was above 20 µM throughout.

In turn, `CCN(CC)c1ccc2c(-c3ccccc3C(=O)N(C)CCCCCC[P+](c3ccccc3)(c3ccccc3)c3ccccc3)c3ccc(=[N+](CC)CC)cc-3oc2c1` yielded a Kd in experiment [2] of 0.81 µM.

With `CC(C)(C)[Si](C)(C)O[C@H]1CC[C@]2(C)[C@H]1[C@H]2CCC[P+](c1ccccc1)(c1ccccc1)c1ccccc1`, the IC50 in the experiment with HeLa was found to be 1.67 µM; in the experiment on CWR22R, 0.86 µM; in experiment [1], 8.05 µM.

Consider `Cc1c(C)c2c(c(C)c1O)CCC(C)(CCCCCCCCCC[P+](c1ccccc1)(c1ccccc1)c1ccccc1)O2` (stereo not given), for which the results for the IC50 (in the experiment with HeLa; in the experiment on CWR22R; in experiment [1]) were 1.45 µM, 0.183 µM and 8.42 µM, respectively.

In the case of `CN(CCCCCCCC[P+](c1ccccc1)(c1ccccc1)c1ccccc1)C(=O)c1ccccc1C1=c2cc3c4c(c2Oc2c1cc1c5c2CCCN5CCC1)CCC[N+]=4CCC3`, the Kd came to 5.21 µM in experiment [4], 0.37 µM in experiment [5] and 0.27 µM in experiment [2].

For the compound `O=C(c1ccccc1)C(O)(CCC[P+](c1ccccc1)(c1ccccc1)c1ccccc1)c1ccccc1` (stereo not given), the IC50 is 17.6 µM with HeLa, 3.49 µM with CWR22R and above 20 µM in experiment [1].

Turning to `COc1cc(COC(=O)CCCCC[P+](c2ccccc2)(c2ccccc2)c2ccccc2)c(OC)c2c1OCO2`, the IC50 in the experiment on HeLa was above 20 µM; in the experiment on CWR22R, 18.3 µM; in experiment [1], above 20 µM.

The compound `CN(CCCCCC[P+](c1ccccc1)(c1ccccc1)c1ccccc1)C(=O)c1ccccc1C1=c2cc3c4c(c2Oc2c1cc1c5c2CCCN5CCC1)CCC[N+]=4CCC3` returned a Kd in experiment [2] of 1.52 µM.

By IC50 is commonly meant the point on the concentration scale where inhibition reaches its midpoint. For orientation: Kd means the constant that tells how readily two partners part at equilibrium.

Values taken from ChEMBL document CHEMBL6083281, “Development of a Fluorescence Probe for High-Throughput Screening of Allosteric Inhibitors Targeting TRAP1” (J Med Chem, 2024).
